# Assay results taken from US11566007B2, “Ras inhibitors” (Revolution Medicines, Inc., priority 2019, dated 2023).
# Values joined by “and” are separate entries in the source; they are usually repeats but may differ in a detail not shown here. Equal values may be shown once. Read-outs that look alike come from different tables or passages of the source.
# Columns and labels:
# [1] = tested on: NCI-H358 (K-Ras G12C); assay: CellTiter-Glo cell viability assay, NCI-H358; assay type: cell-based, human; conditions: NCI-H358, 5-day treatment
# Method in brief: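 Luminescent viability readout on day 5 after direct compound addition to plated cells; plates sat ~30 min at room temperature before reading. Values expressed as percent of mean DMSO signal, curves fit with a four-parameter logistic model.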
# [2] = biological target: K-Ras G12C (Homo sapiens (Human), UniProt P01116+P62937, G12C); assay: Ras-Raf (BRAF RBD) disruption / FRET / MOA assay, KRAS G12C; assay type: biochemical
# Method in brief: (§1)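 Ras:RAF disruption was scored as a fall in TR-FRET ratio relative to DMSO. Compound ranged in 3-fold steps over 10 points from 30 μM final; incubation ran 3 h at 25° C, detection antibodies a further 1.5 h. Reported as IC50.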
# [3] = biological target: NRAS G12C (Homo sapiens (Human), UniProt P01111+P62937, G12C); assay: Ras-Raf (BRAF RBD) disruption / FRET / MOA assay, NRAS G12C; assay type: biochemical; conditions: read-out: IC50* NRAS G12C FRET data
# Method in brief: as §1
# [4] = biological target: KRAS G12D (Homo sapiens (Human), UniProt P01116+P62937, G12D); assay: Ras-Raf (BRAF RBD) disruption / FRET / MOA assay, KRAS G12D; assay type: biochemical; conditions: Ras-Raf disruption/FRET/MOA assay; class symbols; read-out: KRAS G12D FRET data IC50
# Method in brief: as §1
# [5] = biological target: KRAS G13D (Homo sapiens (Human), UniProt P01116+P62937, G13D); assay: Ras-Raf (BRAF RBD) disruption / FRET / MOA assay, KRAS G13D; assay type: biochemical; conditions: read-out: IC50* KRAS G13D FRET data
# Method in brief: as §1
# [6] = biological target: K-Ras G13C (Homo sapiens (Human), UniProt P01116+P62937, G13C); assay: Ras-Raf (BRAF RBD) disruption / FRET / MOA assay, KRAS G13C; assay type: biochemical
# Method in brief: as §1
# [7] = biological target: KRAS G12V (Homo sapiens (Human), UniProt P01116+P62937, G12V); assay: Ras-Raf (BRAF RBD) disruption / FRET / MOA assay, KRAS G12V; assay type: biochemical; conditions: read-out: IC50* KRAS G12V FRET data
# Method in brief: as §1
# [8] = biological target: KRAS WT (Homo sapiens (Human), UniProt P01116+P62937); assay: Ras-Raf (BRAF RBD) disruption / FRET / MOA assay, KRAS WT; assay type: biochemical; conditions: read-out: IC50* KRAS WT FRET data
# Method in brief: as §1
# [9] = biological target: KRAS G12S (Homo sapiens (Human), UniProt P01116+P62937, G12S); assay: Ras-Raf (BRAF RBD) disruption / FRET / MOA assay, KRAS G12S; assay type: biochemical; conditions: Ras-Raf disruption/FRET/MOA assay; class symbols; read-out: KRAS G12S FRET data IC50
# Method in brief: as §1
# [10] = tested on: NCI-H358 cells (K-Ras G12C); assay: Potency assay: pERK in NCI-H358 cells; assay type: cell-based, human; conditions: Homo sapiens, NCI-H358; H358 KRAS G12C; read-out: pERK EC50
# Method in brief: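 Compounds are dosed as ten 3-fold dilutions from a 10 mM DMSO stock, in duplicate, and left on cells for 4 h at 37 °C, 5% CO2. Phospho-ERK1/2 is then quantified by AlphaLISA SureFire Ultra or In-Cell Western, and IC50 is derived from a 4-parameter sigmoid against log concentration.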
# [11] = Homo sapiens, NCI-H358, 120 h, class symbols, read-out: Additional H358 Cell Viability assay data (K-Ras G12C, IC50)
# [12] = KRAS G12C, Ras-Raf disruption/FRET/MOA assay, read-out: IC50* KRAS G12C FRET data
# [13] = KRAS G13C, Ras-Raf disruption/FRET/MOA assay, read-out: IC50* KRAS G13C FRET data
# KRAS G13D, sequence (P01116-2 other isoform, or with tags, fused parts or gaps G13D): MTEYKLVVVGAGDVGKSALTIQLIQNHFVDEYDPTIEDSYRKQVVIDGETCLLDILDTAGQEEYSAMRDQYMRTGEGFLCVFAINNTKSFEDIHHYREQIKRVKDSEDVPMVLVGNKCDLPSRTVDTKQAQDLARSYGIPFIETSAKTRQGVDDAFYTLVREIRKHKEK
# KRAS G13D, sequence (P62937 whole entry): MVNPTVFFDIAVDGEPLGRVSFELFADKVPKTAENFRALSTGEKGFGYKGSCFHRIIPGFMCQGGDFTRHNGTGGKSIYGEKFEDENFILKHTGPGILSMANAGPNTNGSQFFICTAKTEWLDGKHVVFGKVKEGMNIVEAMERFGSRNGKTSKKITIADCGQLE
# KRAS G12D, sequence (P01116-2 other isoform, or with tags, fused parts or gaps G12D): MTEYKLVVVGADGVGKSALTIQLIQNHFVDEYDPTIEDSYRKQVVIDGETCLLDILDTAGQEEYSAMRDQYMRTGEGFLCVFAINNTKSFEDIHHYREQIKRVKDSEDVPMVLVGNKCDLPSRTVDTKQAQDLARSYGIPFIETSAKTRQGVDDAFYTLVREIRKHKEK
# KRAS G12D, sequence (P62937 whole entry): as the sequence (P62937 whole entry) above
# KRAS G12V, sequence (P01116-2 other isoform, or with tags, fused parts or gaps G12V): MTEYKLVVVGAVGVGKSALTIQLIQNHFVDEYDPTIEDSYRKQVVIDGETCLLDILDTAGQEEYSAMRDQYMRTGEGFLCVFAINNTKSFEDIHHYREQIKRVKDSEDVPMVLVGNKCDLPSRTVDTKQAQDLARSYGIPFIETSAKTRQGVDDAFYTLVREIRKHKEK
# KRAS G12V, sequence (P62937 whole entry): as the sequence (P62937 whole entry) above
# NRAS G12C, sequence (P01111 whole entry G12C): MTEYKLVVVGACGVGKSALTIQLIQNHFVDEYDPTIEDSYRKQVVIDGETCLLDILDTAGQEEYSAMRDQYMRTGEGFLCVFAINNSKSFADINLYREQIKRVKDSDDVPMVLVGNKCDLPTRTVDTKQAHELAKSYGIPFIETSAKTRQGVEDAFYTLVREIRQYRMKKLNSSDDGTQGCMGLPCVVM
# NRAS G12C, sequence (P62937 whole entry): as the sequence (P62937 whole entry) above
# KRAS WT, sequence (P01116-2 other isoform, or with tags, fused parts or gaps): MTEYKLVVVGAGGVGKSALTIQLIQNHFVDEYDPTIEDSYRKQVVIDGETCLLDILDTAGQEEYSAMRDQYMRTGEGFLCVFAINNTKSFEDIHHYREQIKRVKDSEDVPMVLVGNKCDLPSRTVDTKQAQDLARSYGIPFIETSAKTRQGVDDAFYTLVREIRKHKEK
# KRAS WT, sequence (P62937 whole entry): as the sequence (P62937 whole entry) above
# K-Ras G12C, sequence (P01116-2 other isoform, or with tags, fused parts or gaps G12C): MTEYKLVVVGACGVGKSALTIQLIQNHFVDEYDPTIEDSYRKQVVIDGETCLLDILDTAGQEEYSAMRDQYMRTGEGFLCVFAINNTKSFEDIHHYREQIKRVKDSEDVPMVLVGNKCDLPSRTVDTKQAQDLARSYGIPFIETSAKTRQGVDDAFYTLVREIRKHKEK
# K-Ras G12C, sequence (P62937 whole entry): as the sequence (P62937 whole entry) above
# KRAS G12S, sequence (P01116-2 other isoform, or with tags, fused parts or gaps G12S): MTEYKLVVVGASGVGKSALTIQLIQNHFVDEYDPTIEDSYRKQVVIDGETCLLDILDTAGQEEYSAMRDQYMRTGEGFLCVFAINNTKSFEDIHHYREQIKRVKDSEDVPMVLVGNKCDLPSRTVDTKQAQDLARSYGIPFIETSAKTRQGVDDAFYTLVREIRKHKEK
# KRAS G12S, sequence (P62937 whole entry): as the sequence (P62937 whole entry) above
# K-Ras G13C, sequence (P01116-2 other isoform, or with tags, fused parts or gaps G13C): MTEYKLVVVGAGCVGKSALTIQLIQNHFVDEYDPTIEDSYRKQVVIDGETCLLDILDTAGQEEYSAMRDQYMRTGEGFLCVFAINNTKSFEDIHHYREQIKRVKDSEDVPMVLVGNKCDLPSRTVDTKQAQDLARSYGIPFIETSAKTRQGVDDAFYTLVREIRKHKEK
# K-Ras G13C, sequence (P62937 whole entry): as the sequence (P62937 whole entry) above
Structure (SMILES),"IC50 [1, 11]","IC50 [2, 12]",IC50 [3],IC50 [4],IC50 [5],"IC50 [6, 13]",IC50 [7],IC50 [8],IC50 [9],EC50 [10],"IC50 ([1]; class symbols, read-out: Additional H358 Cell Viability assay data (K-Ras G12C, IC50))","IC50 ([1]; Homo sapiens, NCI-H358, 120 h, read-out: H358 Cell Viability (K-Ras G12C) IC50)","IC50 ([2]; with Cyclophilin A, BRAF RBD, read-out: FRET (K-Ras G12C) IC50)","IC50 ([6]; with Cyclophilin A, BRAF RBD, read-out: FRET (K-Ras G13C) IC50)"
"CCn1c(-c2cccnc2[C@H](C)OC)c2c3cc(ccc31)-c1csc(n1)C[C@H](NC(=O)CCOC1CN(C(=O)C#CC(C)(C)N3CCC3)C1)C(=O)N1CCC[C@H](N1)C(=O)OCC(C)(C)C2 (atropisomer, axis not shown) [Example A477]",10 to 100 nM,< 10 nM,10 to 100 nM,> 10000 nM,> 10000 nM,1000 to 10000 nM,1000 to 10000 nM,1000 to 10000 nM,> 10000 nM,< 5000 nM,–,–,–,–
"C=CC(=O)N1CC[C@H](C(=O)N(C)[C@H](C(=O)N[C@H]2Cc3cc(O)cc(c3)-c3ccc4c(c3)c(c(-c3cnccc3[C@H](CC)OC)n4CC)CC(C)(C)COC(=O)[C@@H]3CCCN(N3)C2=O)C(C)C)C1 (atropisomer, axis not shown) [Example A194]",10 to 100 nM,100 to 1000 nM and < 10 nM,100 to 1000 nM and < 10 nM,1000 to 10000 nM and 100 to 1000 nM,100 to 1000 nM and 1000 to 10000 nM,10 to 100 nM and 1000 to 10000 nM,100 to 1000 nM and 10 to 100 nM,1000 to 10000 nM and 10 to 100 nM,100 to 1000 nM and 10 to 100 nM,< 5000 nM,< 10 nM,–,–,–
"C=CC(=O)Nc1cnc(C(=O)N(C)[C@H](C(=O)N[C@H]2Cc3cc(O)cc(c3)-c3ccc4c(c3)c(c(-c3cccnc3[C@H](C)OC)n4CC)CC(C)(C)COC(=O)[C@@H]3CCCN(N3)C2=O)C(C)C)s1 (atropisomer, axis not shown) [Example A254]",100 to 1000 nM,100 to 1000 nM,100 to 1000 nM,1000 to 10000 nM,1000 to 10000 nM,10 to 100 nM,1000 to 10000 nM,100 to 1000 nM,1000 to 10000 nM,< 5000 nM,–,–,–,–
"C=CC(=O)N1CC[C@@]2(CCN([C@H](C(=O)N[C@H]3Cc4cccc(c4)-c4ccc5c(c4)c(c(-c4cccnc4[C@H](C)OC)n5CC)CC(C)(C)COC(=O)[C@@H]4CCCN(N4)C3=O)C(C)C)C2=O)C1 (atropisomer, axis not shown) [Example A471]",10 to 100 nM,100 to 1000 nM,100 to 1000 nM,> 10000 nM,> 10000 nM,100 to 1000 nM,> 10000 nM,1000 to 10000 nM,1000 to 10000 nM,< 5000 nM,–,–,–,–
"C=CC(=O)N1CC[C@H](C(=O)N(C)[C@H](C(=O)N[C@H]2Cc3csc(n3)-c3ccc4c(c3)c(c(-c3cccnc3[C@H](C)OC)n4CC(F)(F)F)CC(C)(C)COC(=O)[C@@H]3CCCN(N3)C2=O)C(C)C)C1 (atropisomer, axis not shown) [Example A455]",10 to 100 nM,100 to 1000 nM,100 to 1000 nM,1000 to 10000 nM,1000 to 10000 nM,100 to 1000 nM,1000 to 10000 nM,100 to 1000 nM,100 to 1000 nM,< 5000 nM,–,–,–,–
CCn1c(-c2ccccc2CN(C)C)c2c3cc(ccc31)-c1cc(O)cc(c1)C[C@H](NC(=O)[C@H](C(C)C)N(C)C(=O)c1ncc(NC(=O)/C=C/CN(C)C)n1C)C(=O)N1CCC[C@H](N1)C(=O)OCC(C)(C)C2 [Example A116],100 to 1000 nM,< 10 nM,< 10 nM,1000 to 10000 nM,1000 to 10000 nM,10 to 100 nM,> 10000 nM,1000 to 10000 nM,> 10000 nM,< 5000 nM,–,–,–,–
"CCn1c(-c2cccnc2[C@H](C)OC)c2c3cc(ccc31)-c1csc(n1)C[C@H](NC(=O)[C@H](C(C)C)N(C)C(=O)[C@H]1CCN(C(=O)C#CCN3CCOCC3)C1)C(=O)N1CCC[C@H](N1)C(=O)OCC(C)(C)C2 (atropisomer, axis not shown) [Example A186]",–,10 to 100 nM and 1000 to 10000 nM,10 to 100 nM and 1000 to 10000 nM,> 10000 nM,> 10000 nM,> 10000 nM and 1000 to 10000 nM,1000 to 10000 nM and > 10000 nM,> 10000 nM,1000 to 10000 nM and > 10000 nM,< 5000 nM,–,5 nM,38 nM,940 nM

# Further lines, with some results ahead:
"IC50 [1, 11]","IC50 [2, 12]",IC50 [3],IC50 [4],IC50 [5],"IC50 [6, 13]",IC50 [7],IC50 [8],IC50 [9],EC50 [10],"IC50 ([1]; class symbols, read-out: Additional H358 Cell Viability assay data (K-Ras G12C, IC50))",Structure (SMILES),"IC50 ([1]; Homo sapiens, NCI-H358, 120 h, read-out: H358 Cell Viability (K-Ras G12C) IC50)","IC50 ([2]; with Cyclophilin A, BRAF RBD, read-out: FRET (K-Ras G12C) IC50)","IC50 ([6]; with Cyclophilin A, BRAF RBD, read-out: FRET (K-Ras G13C) IC50)"
< 10 nM,10 to 100 nM,10 to 100 nM,1000 to 10000 nM,1000 to 10000 nM,10 to 100 nM,1000 to 10000 nM,1000 to 10000 nM,1000 to 10000 nM,< 5000 nM,–,"C=CC(=O)N1C[C@@H](F)[C@](F)(C(=O)N(C)[C@H](C(=O)N[C@H]2Cc3cccc(c3)-c3ccc4c(c3)c(c(-c3cccnc3[C@H](C)OC)n4CC)CC(C)(C)COC(=O)[C@@H]3CCCN(N3)C2=O)C(C)C)C1 (atropisomer, axis not shown) [Example A396]",–,–,–
< 10 nM,< 10 nM,< 10 nM,1000 to 10000 nM,1000 to 10000 nM,1000 to 10000 nM,1000 to 10000 nM,1000 to 10000 nM,1000 to 10000 nM,< 5000 nM,–,"CCn1c(-c2cccnc2[C@H](C)OC)c2c3cc(ccc31)-c1cccc(c1)C[C@H](NC(=O)[C@H](C(C)C)N(C)C(=O)[C@H]1CCN(C(=O)C#CC(C)(C)N3CCCC3)C1)C(=O)N1CCC[C@H](N1)C(=O)OCC(C)(C)C2 (atropisomer, axis not shown) [Example A326]",–,–,–
10 to 100 nM,< 10 nM,< 10 nM,1000 to 10000 nM and 100 to 1000 nM,100 to 1000 nM and 1000 to 10000 nM,10 to 100 nM and < 10 nM,100 to 1000 nM and 1000 to 10000 nM,100 to 1000 nM and 1000 to 10000 nM,100 to 1000 nM and 1000 to 10000 nM,< 5000 nM,–,"CCn1c(-c2cccnc2[C@H](C)OC)c2c3cc(ccc31)-c1cc(O)cc(c1)C[C@H](NC(=O)[C@H](C(C)C)N(C)C(=O)[C@H]1CCN(C(=O)C#C[C@@H]3CCCN3C)C1)C(=O)N1CCC[C@H](N1)C(=O)OCC(C)(C)C2 (atropisomer, axis not shown) [Example A247]",–,–,–
< 10 nM,< 10 nM,< 10 nM,1000 to 10000 nM,1000 to 10000 nM,10 to 100 nM,1000 to 10000 nM,1000 to 10000 nM,1000 to 10000 nM,< 5000 nM,–,CCn1c(-c2cncnc2)c2c3cc(ncc31)-c1cc(O)cc(c1)C[C@H](NC(=O)[C@H](C(C)C)N(C)C(=O)[C@H]1CCN(C(=O)C#CCN(C)C)C1)C(=O)N1CCC[C@H](N1)C(=O)OCC(C)(C)C2 [Example A108],–,–,–
